Reference: patent publication US12173349B2, “Lung protease nanosensors and uses thereof” (Massachusetts Institute of Technology, priority 2018, dated 2024)
Entries after “also recorded” stand apart in the source; their conditions may differ. Where no end group is shown, it is not given here. [ ]: non-standard residue; d: D form. F+10 = not defined here; A+4 = not defined here; G+2 = not defined here; G+3 = not defined here

Experiments:
[1] = system: 15 proteases in the LUAD protease panel; test: in vitro recombinant protease screen of FRET-paired substrates; format: biochemical; details: fluorescence fold change at 45 minutes; 1 μM substrate, 12.5 nM recombinant enzyme; MP metallo-, SP serine, AP aspartic protease
Text: Hundreds of peptide sequences have been previously designed and validated as protease substrates, leveraging known catalytic specificities of different protease families, published datasets and substrate sequences in databases like cutDB and MEROPS (Igarashi et al., Nucleic Acids Res 35, D546-549, 2007; Rawlings et al., Nucleic Acids Res 46, D624-D632, 2018). Fourteen of these substrates were nominated in an effort to cover the specificity profiles of metallo-, serine and aspartic endoproteases, all of which were included in the LUAD protease panel, and the catalytic activity of each protease-substrate pair was characterized. Quenched probes that incorporated the 14 peptide substrates were synthesized such that they fluoresce upon proteolytic cleavage to enable real-time monitoring of protease activity in vitro (FIG. 3A and Table 2). Each probe was incubated with each protease in the panel and fluorescence was monitored over 45 minutes. Shown are sample kinetic plots monitoring dequenching of the 14 FRET-paired probes when incubated with (above) and without (below) recombinant matrix metalloproteinase 3 (MMP3) (FIG. 3B). […] See also FIG. 19.
Fluorogenic protease substrates were synthesized by CPC Scientific. Recombinant proteases were purchased from Enzo Life Sciences, R&D Systems and Haematologic Technologies. For recombinant protease assays, fluorogenic substrates PPQ1-14 (1 μM final concentration) were incubated in 30 μL final volume in appropriate enzyme buffer, according to manufacturer specifications, with 12.5 nM recombinant enzyme at 37° C. (FIG. 3). Proteolytic cleavage of substrates was quantified by increases in fluorescence over time by fluorimeter (Tecan Infinite M200 Pro). Enzyme cleavage rates were quantified as relative fluorescence increase over time normalized to fluorescence before addition of protease. Hierarchical clustering was performed in GENE-E, using fluorescence fold changes at 45 minutes.

[2] = system: Kras and p53 mutant lung adenocarcinoma (KP mice); test: urinary ABN readout and random forest classification in KP lung adenocarcinoma model; format: in vivo
Experimental: To characterize ABN performance in vivo, 14 protease-sensitive ABNs were administered to KP mice and healthy, age and sex-matched controls at 5, 7.5 and 10.5 weeks after tumor initiation. Mouse bladders were voided one hour after intrapulmonary delivery and all fresh urine produced during the subsequent hour (from 60-120 minutes after administration) was pooled and collected. LC-MS/MS was performed and peak area ratios (defined as peak area of urinary reporter divided by peak area of spiked-in internal standard) of protease-sensitive reporters were mean-normalized within each sample to reduce mouse-to-mouse variation.
A random forest classifier was then sought to be built to enable prospective diagnosis of lung cancer in KP mice. Random forest is a high-performance classifier, applicable to a wide variety of classification tasks, that generates a collection of decision trees (a “forest”) that are sampled to produce classification results (Breiman, Machine Learning 45, 5-32, 2001). A random forest classifier was trained using 50% of control mice at 5 weeks, 7.5 weeks and 10.5 weeks, as well as 50% of KP mice at 7.5 weeks (FIG. 6A). The classifier assigned a probability that each mouse belonged to either the KP cohort or the healthy control cohort (FIG. 6B, “Training” panel), achieving perfect separation of control and KP mice. The classifier was then sought to be tested on an independent validation cohort consisting of classifier-naive KP mice at 5 weeks, 7.5 weeks and 10.5 weeks post-induction, as well as the remaining control mice from each time point.
Male B6/SV129 Kras^LSL-G12D/+; Trp53^fl/fl (KP) mice between 18 and 30 weeks old were used for lung adenocarcinoma experiments. Tumors were initiated, as described previously (DuPage et al., Nat Protoc 4, 1064-1072 (2009)), by the intratracheal administration of 50 μL of adenovirus-SPC-Cre (2.5×10^8 PFU in Opti-MEM with 10 mM CaCl2)) under isoflurane anesthesia. […] Tumor growth was monitored by micro computed tomography (microCT) imaging (General Electric) and was scored by a blinded radiation oncologist using MicroView (Parallax Innovations) (Table 4). Tumor volumes were calculated by using the ROI sphere/elliptical tool.
ABN constructs (GluFib-Substrate-PEG-840 kDa) for urinary experiments were synthesized by CPC Scientific (Sunnyvale, CA). ABNs were dosed (50 μL total volume, 20 μM concentration per ABN) by intratracheal intubation, as described above. Bladders were voided 60 minutes after ABN administration and all urine produced 60-120 min after ABN administration was collected using custom tubes in which the animals rest upon 96-well plates that capture urine. Urine was pooled and frozen at −80° C. until analysis by LC-MS/MS.
Liquid chromatography/tandem mass spectrometry was performed by Syneos Health (Princeton, NJ) using a Sciex 6500 triple quadrupole instrument. Briefly, urine samples were treated with UV irradiation to photocleave the ANP linker and liberate the Glu-Fib reporter from residual peptide fragments. Samples were extracted by solid-phase extraction and analyzed by multiple reaction monitoring by LC-MS/MS to quantify concentration of each Glu-Fib mass variant. Analyte quantities were normalized to a spiked-in internal standard and concentrations were calculated from a standard curve using peak area ratio (PAR) to the internal standard. Mean normalization was performed on PAR values to account for mouse-to-mouse differences in ABN inhalation efficiency and urine concentration.
Principal component analysis (PCA) was performed on mean normalized PAR values in the R statistical environment (Team, R.C. R, R Foundation for Statistical Computing, Vienna, Austria, 2017) using the prcomp function. Binary classification was performed using the Caret package (Kuhn, M. caret: Classification and Regression Training. (2017)) in the R statistical environment). […]

[3] = system: P. aeruginosa strain PA01 lung infection; test: histology and immunofluorescence of lung sections after antibiotic treatment; format: in vivo, mice
Experimental: To test whether inflammation remained after antibiotic therapy, histological and immunofluorescence analysis of lung sections were performed from infected and treated mice. […] The robust diagnostic capability of ELA to identify infection but poor ability to monitor treatment, paired with the robust ability for LAS to specifically monitor treatment highlights the importance of multiplexing and measuring both host and pathogen factors.
Individual responses to antimicrobial treatment can be highly variable, dependent upon the strain of pathogen and the presence of antibiotic resistance, and current clinical tests take 24-72 hours to identify antibiotic susceptibility (Caliendo et al., Clin Infect Dis, 57, S139, 2013). In addition, current clinical tests used to visualize lung infections (e.g., chest X-ray and computed tomography) are often unable to distinguish active infections from those that have been adequately treated until several weeks after antibiotic therapy is complete, because the airspace opacifications characteristic of pneumonia remain apparent on routine radiography screens (Bruns et al., J Gen Intern Med, 25, 203, 2010). Therefore, the ability of the infection-tracking ABNs to identify successful versus insufficient treatment on an acute time-scale shortly after therapeutic initiation was sought to be evaluated. Only 5 hours after establishing lung infections with PA01, antibiotic treatment was initiated with either ciprofloxacin (efficacious against P. aeruginosa) or doxycycline (ineffective against gram-negative bacteria including P. aeruginosa) (FIG. 13A). The following day, multiplexed LAS-E and ELA-E ABNs were administered and urine was collected. […] The persistent Pseudomonas immunostaining observed following ciprofloxacin treatment might be derived from residual Pseudomonas antigens remaining from lysed bacteria that had not yet been cleared by the immune system. Alternatively, the reduced LAS sensor reading in these treated mice could reflect a suppression of LasA secretion from bacteria as they are killed by the potent antibiotic.
All animal studies were approved by Massachusetts Institute of Technology's Committee on Animal Care. For infection studies, 5-7 week old female CD-1 mice were innoculated intratracheally with 1.25×10^6 CFU of P. aeruginosa strain PA01 in 50 μL of PBS. Bacteria were cultured overnight in LB broth, then subcultured and grown to log phase (OD600≈0.5). Bacteria were pelleted, washed with sterile PBS, and then resuspended to the requisite concentration for intratracheal administration. Mice were administered buprenorphine and meloxicam several hours after infection. For antibiotic treatment studies, mice were injected intraperitoneally with 40 mg/kg ciprofloxacin or 30 mg/kg doxycycline twice per day for up to 6 days.
Animals were perfused with PBS followed by 10% formalin solution. The lungs were resected and fixed in formalin before paraffin embedding and sectioning. […] Fluorescence images were acquired on a Perkin Elmer Pannoramic250. Quantification of neutrophil signal was completed by capturing 3-5 representative fields from each stained lung section and counting positive cells. Quantification of pseudomonas signal was completed by capturing 3-5 representative fields from each stained lung section and measuring total positive area after uniform thresholding of each single-channel fluorescence image (ImageJ).

[4] = 24 hours post-infection, after 19 hours of antibiotic therapy

Row | Compound | protease class(es) cleaving the substrate in vitro [1] | urinary reporter enrichment relative to healthy controls ([2]; KP7.5 wk urine) | urinary reporter enrichment relative to healthy controls ([2]; KP10.5 wk urine) | decrease of Pseudomonas immunofluorescent signal compared to the doxycycline-treated group [3, 4] [%] | lung inflammation and neutrophils [3, 4] | Pseudomonas immunofluorescence signal in lungs of infected mice relative to uninfected or ciprofloxacin-treated mice ([3]; 4 day course of ciprofloxacin, 40 mg/kg intraperitoneally twice per day) | Pseudomonas in lung sections after treatment ([3]; histology and immunofluorescent staining after ciprofloxacin course) | decrease in neutrophil count in lungs after antibiotic treatment ([3]; relative to infected mice) [%]
1 | PP03: ABN: reporter e(+3G)(+1V)ndneeGFFs(+4A)r, ANP, substrate PVPLSLVM, nanocarrier PEG8-40 kDa (chain 1 [dE]G[+1V][dN][dD][dN][dE][dE]GFF[dS][+4A][dR]; not fully specified (some residues); printed as PP03: ABN: reporter e(+3G)(+1V)ndneeGFFs(+4A)r, ANP, substrate PVPLSLVM, nanocarrier PEG8-40 kDa; also: ANP photolabile linker, PEG8-40 kDa nanocarrier, linkage of reporter, ANP, substrate and carrier not given here) | metalloproteases or both metalloproteases and aspartic proteases | enriched | enriched | – | – | – | – | –
2 | PP02: ABN: reporter eG(+6V)ndneeGF(+1F)s(+1A)r, ANP, substrate PVGLIG, nanocarrier PEG8-40 kDa (chain 1 EGVNDNEEGFFSAR; not fully specified (some residues); printed as PP02: ABN: reporter eG(+6V)ndneeGF(+1F)s(+1A)r, ANP, substrate PVGLIG, nanocarrier PEG8-40 kDa) | metalloproteases or both metalloproteases and aspartic proteases | enriched | enriched | – | – | – | – | –
3 | O=C(O)c1cn(C2CC2)c2cc(N3CCNCC3)c(F)cc2c1=O [ciprofloxacin] | – | – | – | ~60 | marked lung inflammation and elevated neutrophils | 7-9 fold | no Pseudomonas | ~30
4 | PP11: ABN: reporter e(+3G)(+1V)ndnee(+2G)(+10F)Fs(+4A)r, ANP, substrate SGSKIIGGG, nanocarrier PEG8-40 kDa (chain 1 [dE][G+3][V+1][dN][dD][dN][dE][dE][G+2][F+10]F[dS][A+4][dR]; reading uncertain; also: ANP photolabile linker, attachment not given here, PEG8-40 kDa nanocarrier, attachment not given here, how reporter and substrate are joined not given here, printed as PP11: ABN: reporter e(+3G)(+1V)ndnee(+2G)(+10F)Fs(+4A)r, ANP, substrate SGSKIIGGG, nanocarrier PEG8-40 kDa) | serine protease-sensitive; also recorded: only by serine proteases | – | most significantly enriched | – | – | – | – | –
5 | PP09: ABN: reporter eGVndneeGF(+10F)s(+4A)r, ANP, substrate KPISLISSG, nanocarrier PEG8-40 kDa (chain 1 [dE]GV[dN][dD][dN][dE][dE]GF[+10F][dS][+4A][dR]; also: ANP photolabile linker, PEG8-40 kDa nanocarrier, linkage of reporter, ANP, substrate and carrier not given here) | metalloproteases or both metalloproteases and aspartic proteases | enriched | enriched | – | – | – | – | –
